Experimental data taken from ChEMBL document CHEMBL5385898, “Recent advances in nuclear receptor-binding SET domain 2 (NSD2) inhibitors: An update and perspectives” (Eur J Med Chem, 2023).
Each block holds one compound with its values, some of them ahead of it.

Legend:
[1] = Inhibition of GST-tagged NSD3 (247 to 398 residues) (unknown origin) /PWWP1 (unknown origin) protein-protein interaction incubated for 60 mins by TR-FRET assay; design: species or system Homo sapiens
[2] = target: T1, Histone-lysine N-methyltransferase NSD2 (Homo sapiens, UniProt O96028); experiment: Inhibition of MMSET (unknown origin)
T1 sequence (O96028 whole entry): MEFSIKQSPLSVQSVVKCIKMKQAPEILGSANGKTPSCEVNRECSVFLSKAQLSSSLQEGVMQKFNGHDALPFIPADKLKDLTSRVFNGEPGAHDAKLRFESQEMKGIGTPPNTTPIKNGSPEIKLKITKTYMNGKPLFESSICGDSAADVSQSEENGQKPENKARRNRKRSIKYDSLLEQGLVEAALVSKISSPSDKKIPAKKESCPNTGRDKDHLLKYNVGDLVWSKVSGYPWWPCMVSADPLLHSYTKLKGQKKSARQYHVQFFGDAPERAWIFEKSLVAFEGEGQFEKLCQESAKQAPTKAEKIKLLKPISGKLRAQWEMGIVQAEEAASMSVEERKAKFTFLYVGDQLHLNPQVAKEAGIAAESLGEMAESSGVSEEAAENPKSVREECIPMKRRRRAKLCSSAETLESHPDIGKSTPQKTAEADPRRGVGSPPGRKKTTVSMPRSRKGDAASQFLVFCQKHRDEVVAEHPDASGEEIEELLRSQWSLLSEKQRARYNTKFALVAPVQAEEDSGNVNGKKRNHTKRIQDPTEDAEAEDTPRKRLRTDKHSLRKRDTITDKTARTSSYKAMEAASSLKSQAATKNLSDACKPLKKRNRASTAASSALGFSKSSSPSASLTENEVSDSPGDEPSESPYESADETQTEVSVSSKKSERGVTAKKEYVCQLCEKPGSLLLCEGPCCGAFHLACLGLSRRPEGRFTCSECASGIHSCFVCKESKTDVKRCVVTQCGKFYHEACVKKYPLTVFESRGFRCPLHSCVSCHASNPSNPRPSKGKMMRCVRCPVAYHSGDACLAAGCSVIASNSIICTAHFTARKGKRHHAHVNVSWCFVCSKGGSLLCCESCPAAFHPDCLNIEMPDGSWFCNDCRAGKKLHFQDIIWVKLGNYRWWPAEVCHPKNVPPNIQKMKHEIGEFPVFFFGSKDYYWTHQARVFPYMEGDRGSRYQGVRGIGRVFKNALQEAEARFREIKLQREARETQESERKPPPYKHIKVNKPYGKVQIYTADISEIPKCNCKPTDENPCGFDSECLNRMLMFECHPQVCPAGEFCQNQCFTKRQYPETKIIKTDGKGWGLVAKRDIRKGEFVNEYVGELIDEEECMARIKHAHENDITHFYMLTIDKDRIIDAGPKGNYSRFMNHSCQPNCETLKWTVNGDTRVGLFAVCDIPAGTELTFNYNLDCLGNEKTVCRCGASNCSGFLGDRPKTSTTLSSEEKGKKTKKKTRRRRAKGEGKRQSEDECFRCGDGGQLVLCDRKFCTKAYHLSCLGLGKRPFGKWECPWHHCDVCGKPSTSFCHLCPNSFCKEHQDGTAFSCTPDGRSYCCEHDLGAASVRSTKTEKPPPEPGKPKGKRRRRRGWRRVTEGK

[3] = target: T1, Histone-lysine N-methyltransferase NSD2; experiment: Inhibition of NSD2 (unknown origin)
[4] = target: T1, Histone-lysine N-methyltransferase NSD2; experiment: Binding affinity to human biotinylated NSD2 (208 to 368 residues) expressed in Escherichia coli BL21(DE3) by SPR assay
[5] = target: T1, Histone-lysine N-methyltransferase NSD2; experiment: Inhibition of NSD2 (unknown origin) using H3K36 as substrate
[6] = target: Histone-lysine N-methyltransferase, H3 lysine-36 specific (Homo sapiens, UniProt Q96L73); experiment: Inhibition of NSD1 (unknown origin) using H3K36 as substrate
Sequence of Histone-lysine N-methyltransferase, H3 lysine-36 specific (Q96L73 whole entry): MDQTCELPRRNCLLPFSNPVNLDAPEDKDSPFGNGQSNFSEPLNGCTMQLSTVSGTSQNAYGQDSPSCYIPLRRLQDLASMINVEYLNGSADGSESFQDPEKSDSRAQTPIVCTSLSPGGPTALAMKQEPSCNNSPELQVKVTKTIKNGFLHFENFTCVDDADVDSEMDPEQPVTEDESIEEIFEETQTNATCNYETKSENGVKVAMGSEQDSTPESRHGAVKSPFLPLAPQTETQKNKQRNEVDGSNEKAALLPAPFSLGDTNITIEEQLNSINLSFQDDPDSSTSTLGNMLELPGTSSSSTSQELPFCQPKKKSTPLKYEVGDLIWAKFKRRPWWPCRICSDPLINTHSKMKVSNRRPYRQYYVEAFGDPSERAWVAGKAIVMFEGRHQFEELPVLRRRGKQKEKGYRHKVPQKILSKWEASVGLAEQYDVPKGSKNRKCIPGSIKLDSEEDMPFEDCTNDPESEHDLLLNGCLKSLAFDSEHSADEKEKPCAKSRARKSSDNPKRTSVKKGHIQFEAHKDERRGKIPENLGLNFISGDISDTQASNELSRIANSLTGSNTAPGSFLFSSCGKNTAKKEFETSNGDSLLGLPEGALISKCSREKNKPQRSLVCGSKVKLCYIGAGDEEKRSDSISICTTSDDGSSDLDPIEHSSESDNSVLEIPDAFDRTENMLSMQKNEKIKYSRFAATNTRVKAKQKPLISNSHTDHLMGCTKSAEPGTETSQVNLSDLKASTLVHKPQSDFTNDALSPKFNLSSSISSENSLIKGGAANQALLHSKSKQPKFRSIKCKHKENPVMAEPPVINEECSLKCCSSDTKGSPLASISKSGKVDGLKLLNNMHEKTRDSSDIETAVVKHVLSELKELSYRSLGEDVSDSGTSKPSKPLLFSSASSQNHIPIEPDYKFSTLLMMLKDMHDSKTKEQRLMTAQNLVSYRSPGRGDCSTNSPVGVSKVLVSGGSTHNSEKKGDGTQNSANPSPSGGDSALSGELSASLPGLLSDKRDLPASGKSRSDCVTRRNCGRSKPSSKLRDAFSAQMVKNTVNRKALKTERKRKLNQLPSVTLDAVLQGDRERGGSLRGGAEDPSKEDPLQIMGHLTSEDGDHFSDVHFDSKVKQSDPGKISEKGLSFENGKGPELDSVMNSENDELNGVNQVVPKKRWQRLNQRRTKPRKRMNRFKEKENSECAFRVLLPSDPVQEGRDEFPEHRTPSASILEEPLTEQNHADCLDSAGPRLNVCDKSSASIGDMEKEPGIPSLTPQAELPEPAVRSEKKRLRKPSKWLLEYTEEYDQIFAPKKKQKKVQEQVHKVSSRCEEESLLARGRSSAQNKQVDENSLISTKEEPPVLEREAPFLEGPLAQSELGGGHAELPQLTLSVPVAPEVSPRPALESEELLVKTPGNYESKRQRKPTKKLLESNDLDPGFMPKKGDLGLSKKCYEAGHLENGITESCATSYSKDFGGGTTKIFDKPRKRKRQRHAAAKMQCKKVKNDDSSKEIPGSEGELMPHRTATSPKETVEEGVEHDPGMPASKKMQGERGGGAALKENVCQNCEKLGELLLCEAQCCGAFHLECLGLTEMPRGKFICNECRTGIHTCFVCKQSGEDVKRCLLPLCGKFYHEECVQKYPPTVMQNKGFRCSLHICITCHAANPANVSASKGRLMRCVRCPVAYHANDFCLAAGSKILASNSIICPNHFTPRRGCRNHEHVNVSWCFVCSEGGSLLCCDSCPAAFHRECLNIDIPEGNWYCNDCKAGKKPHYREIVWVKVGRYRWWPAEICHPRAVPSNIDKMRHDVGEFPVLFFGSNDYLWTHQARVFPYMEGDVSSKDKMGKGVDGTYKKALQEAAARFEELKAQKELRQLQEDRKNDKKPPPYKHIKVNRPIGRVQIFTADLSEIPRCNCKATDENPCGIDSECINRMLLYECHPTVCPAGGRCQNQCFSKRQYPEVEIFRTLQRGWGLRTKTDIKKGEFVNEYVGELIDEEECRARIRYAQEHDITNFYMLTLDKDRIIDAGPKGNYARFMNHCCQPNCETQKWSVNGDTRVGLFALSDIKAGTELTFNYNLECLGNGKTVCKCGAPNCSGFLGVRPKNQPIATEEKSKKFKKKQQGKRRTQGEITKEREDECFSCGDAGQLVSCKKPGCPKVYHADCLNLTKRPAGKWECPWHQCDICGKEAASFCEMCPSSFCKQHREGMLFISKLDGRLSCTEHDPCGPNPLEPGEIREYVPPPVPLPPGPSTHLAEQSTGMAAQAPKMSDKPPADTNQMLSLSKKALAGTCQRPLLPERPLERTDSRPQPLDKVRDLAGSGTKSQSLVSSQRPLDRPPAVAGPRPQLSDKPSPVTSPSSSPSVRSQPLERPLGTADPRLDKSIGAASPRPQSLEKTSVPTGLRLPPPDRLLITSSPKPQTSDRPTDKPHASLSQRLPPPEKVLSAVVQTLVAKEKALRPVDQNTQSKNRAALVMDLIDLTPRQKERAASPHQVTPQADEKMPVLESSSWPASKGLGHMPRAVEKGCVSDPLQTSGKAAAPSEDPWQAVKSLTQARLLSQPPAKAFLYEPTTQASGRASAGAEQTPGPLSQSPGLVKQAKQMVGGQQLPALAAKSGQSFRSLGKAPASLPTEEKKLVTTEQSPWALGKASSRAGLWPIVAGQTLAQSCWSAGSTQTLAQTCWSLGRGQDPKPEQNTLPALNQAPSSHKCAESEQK

[7] = target: T2, Histone-lysine N-methyltransferase NSD3 (Homo sapiens, UniProt Q9BZ95); experiment: Inhibition of NSD3 (unknown origin) using H3K36 as substrate
T2 sequence (Q9BZ95 whole entry): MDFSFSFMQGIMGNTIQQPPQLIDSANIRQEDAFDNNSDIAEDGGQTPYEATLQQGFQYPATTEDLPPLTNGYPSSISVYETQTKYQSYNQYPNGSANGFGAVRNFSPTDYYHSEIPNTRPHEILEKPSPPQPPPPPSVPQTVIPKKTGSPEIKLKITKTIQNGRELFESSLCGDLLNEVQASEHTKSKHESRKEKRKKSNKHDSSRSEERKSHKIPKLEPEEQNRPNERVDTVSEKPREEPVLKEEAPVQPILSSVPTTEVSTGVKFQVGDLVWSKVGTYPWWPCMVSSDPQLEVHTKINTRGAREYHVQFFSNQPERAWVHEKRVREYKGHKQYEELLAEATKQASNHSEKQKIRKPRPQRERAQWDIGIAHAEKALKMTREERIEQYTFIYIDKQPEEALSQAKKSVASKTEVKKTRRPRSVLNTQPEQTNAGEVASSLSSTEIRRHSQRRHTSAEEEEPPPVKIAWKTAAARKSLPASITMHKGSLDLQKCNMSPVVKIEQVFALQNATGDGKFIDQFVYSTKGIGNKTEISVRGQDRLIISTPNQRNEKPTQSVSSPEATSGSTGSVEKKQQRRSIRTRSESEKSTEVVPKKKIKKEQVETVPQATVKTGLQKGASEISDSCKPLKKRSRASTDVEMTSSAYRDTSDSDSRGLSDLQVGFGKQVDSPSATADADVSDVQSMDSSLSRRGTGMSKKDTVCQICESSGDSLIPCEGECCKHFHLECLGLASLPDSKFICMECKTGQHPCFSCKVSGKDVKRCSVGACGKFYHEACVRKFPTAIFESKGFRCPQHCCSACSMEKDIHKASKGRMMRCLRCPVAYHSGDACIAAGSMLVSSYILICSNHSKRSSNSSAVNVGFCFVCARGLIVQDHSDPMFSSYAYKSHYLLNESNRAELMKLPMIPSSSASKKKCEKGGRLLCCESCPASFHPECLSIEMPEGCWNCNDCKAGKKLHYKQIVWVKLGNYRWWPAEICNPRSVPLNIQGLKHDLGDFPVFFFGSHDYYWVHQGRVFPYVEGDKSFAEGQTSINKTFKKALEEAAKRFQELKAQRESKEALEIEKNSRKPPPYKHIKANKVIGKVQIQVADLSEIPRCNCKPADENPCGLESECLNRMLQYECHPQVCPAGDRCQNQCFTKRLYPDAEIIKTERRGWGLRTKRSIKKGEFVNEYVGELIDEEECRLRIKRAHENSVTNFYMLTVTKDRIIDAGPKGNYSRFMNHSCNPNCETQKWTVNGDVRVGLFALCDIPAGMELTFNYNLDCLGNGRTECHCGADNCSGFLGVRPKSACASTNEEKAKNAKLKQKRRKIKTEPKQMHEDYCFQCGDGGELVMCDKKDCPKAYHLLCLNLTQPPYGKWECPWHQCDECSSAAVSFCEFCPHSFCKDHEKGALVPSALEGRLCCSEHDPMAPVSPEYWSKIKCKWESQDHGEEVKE

[8] = target: T1, Histone-lysine N-methyltransferase NSD2; experiment: Inhibition of NSD2 in human CGTH-W-1 cells assessed as reduction in H3K36me2 level incubated for 72 hrs by ELISA; assay type: cell-based
[9] = target: T1, Histone-lysine N-methyltransferase NSD2; experiment: Inhibition of NSD2 in human KMS-11-Par cells assessed as reduction in H3K36me2 level incubated for 72 hrs by ELISA; assay type: cell-based
PC-3 = experiment: Antiproliferative activity against human PC-3 cells; assay type: functional, cell-based
NCI-H2228 = experiment: Antiproliferative activity against human NCI-H2228 cells; assay type: functional, cell-based
MDA-MB-231 = experiment: Antiproliferative activity against human MDA-MB-231 cells; assay type: functional, cell-based
SK-OV-3 = experiment: Antiproliferative activity against human SK-OV-3 cells; assay type: functional, cell-based
[10] = target: T1, Histone-lysine N-methyltransferase NSD2; experiment: Inhibition of 15N-labeled NSD2 (953 to 1240 residues) (unknown origin) expressed in Escherichia coli BL21 DE3 using H3K36 as substrate incubated for 60 mins by Alphascreen assay

SMILES: O=C1COc2cc(C(=O)N(Cc3cccs3)C3CC3)ccc2N1
Kd [4]: 0.349 µM

SMILES: C=CC(=O)Nc1cc(NC(=O)Nc2ccc3nnsc3c2)cc(C(=O)OC)c1
IC50 [3]: 8.1 µM

SMILES: O=C(NCCCN(Cc1nc2sc3c(c2c(=O)[nH]1)CCCC3)Cc1nc2sc3c(c2c(=O)[nH]1)CCCC3)c1cc2ccccc2c(=O)o1
IC50 [5]: 111 µM | IC50 [6]: 418 µM | IC50 [7]: 60 µM

SMILES: O=C(Nc1cccc([N+](=O)[O-])c1)Nc1ccc2nnsc2c1
IC50 [3]: 4.8 µM

SMILES: Cn1nnc2ccc(NC(=O)Nc3cccc([N+](=O)[O-])c3)cc21
IC50 [3]: 8.3 µM

SMILES: CC[C@H](C)C(=O)[C@@]1(N)CCCN(c2cnc(-c3ccc(F)c(F)c3)cc2Cn2cnc3c(N)ncnc32)C1
IC50 [8]: 0.04 µM | IC50 [9]: 0.034 µM

SMILES: CNC(=O)[C@@]1(N)CCCN(c2cnc(-c3cccc(F)c3)cc2Cn2cnc3c(N)ncnc32)C1
IC50 [8]: 0.012 µM | IC50 [9]: 0.078 µM

SMILES: CC(C)CN[C@@H](CC[C@H](N)C(=O)O)C[C@H]1O[C@@H](n2cnc3c(N)ncnc32)[C@H](O)[C@@H]1O
IC50 [10]: 1.8 µM

Further lines, results first:

IC50 [1]: 0.203 µM
SMILES: Cc1cc(CN)cc(C)c1-c1ncn(C)c1-c1ccnc2cc(F)ccc12

IC50 [2]: < 3 µM
SMILES: NNc1nc2ccccc2nc1S

IC50 [3]: 7.5 µM
SMILES: N#Cc1cccc(NC(=O)Nc2ccc3nnsc3c2)c1

IC50 [3]: 7.3 µM
SMILES: CC(=O)c1ccc(-c2cc(NC(=O)Nc3ccc4nnsc4c3)cc(C(F)(F)F)c2)s1

IC50 [8]: 0.018 µM | IC50 [9]: 0.041 µM
SMILES: Nc1ncnc2c1ncn2Cc1cc(-c2ccc(F)c(F)c2)ncc1N1CCC[C@](N)(c2ccccn2)C1

IC50 [3]: 3.7 µM | IC50 (PC-3): 4.2 µM | IC50 (NCI-H2228): 6.8 µM | IC50 (MDA-MB-231): 5.1 µM | IC50 (SK-OV-3): 2.6 µM
SMILES: COC(=O)c1cc(NC(=O)Nc2ccc3nnsc3c2)cc(C(=O)OC)c1

Kd [4]: > 20 µM
SMILES: CC(C)N(Cc1ccc(C(=O)Nc2ccncn2)cc1)C(=O)c1ccc2c(c1)OCC(=O)N2

IC50 [10]: 46 µM
SMILES: Nc1ncnc2c1ncn2[C@@H]1O[C@H](C[C@@H](N)CC[C@H](N)C(=O)O)[C@@H](O)[C@H]1O [SINEFUNGIN]
